# What was measured:
# AMML = assay: Survival of fresh human leukemic cells, continuous exposure; assay type: cell-based
# L-1210 leukemia cells = assay: Tumor cell survival after pulse treatment; assay type: cell-based, Mouse; conditions: for Percent Tumor Cell Survival: viability 24 hr later
# Experimental: All rabbit, marmoset and human lymphoid in vitro cell lines, murine L-1210 leukemia and primary human leukemias were treated at cell concentrations of 6-10×10^5 cells/ml. The tripeptide was added to the cell suspensions to yield final concentrations of 1 to 50 ug/ml. Cultures were treated at 37° C. for periods ranging between 15 min to 24 hr. Following treatment, aliquots were removed and centrifuged at 800 rpm for 9 min, at 5° C. Treatment media were gently aspirated and the lymphoid cells resuspended in fresh growth media and reincubated at 37° C. Culture media were changed daily by gently pelleting the cells and exchanging 60-70% of the spent supernatant with fresh media.
# Survival of tumor cell layers or suspensions was ascertained using 0.5% trypan blue in 0.1M phosphate-buffered saline, pH 7.25. Cell layers were released from the Multidish-4 wells with 0.5 ml STV, diluted 2 to 10 fold with the vital strain; tumor cells in suspension cultures were directly mixed 1:1 with the trypan blue dye. Tumor cells were enumerated using a haemocytometer; all 10 fields were counted for every sample. Percent viable cells was determined by direct comparison of the numbers of cells excluding trypan blue in treated cultures to those in untreated or diluent-treated parallel cultures. There were no significant differences in the viability of cells treated with diluent when compared to untreated cells.
# To delineate the minimum concentration and duration of the tripeptide compound exposure to induce cytolysis, MJY-alpha and B-16 melanoma cell layers and L-1210 leukemia cell suspensions were exposed to 0.5 to 50 ug of the tripeptide compound per ml of solvent for 0.25 to 4 hours. The tripeptide compound was then removed and the cells washed and reincubated in media growth. Tumor cell viability was determined 24 hrs after pulse tripeptide compound exposure. Cell survival of all three tumor cell lines was reduced by an exposure period of as short as 15 min (Table 4). The degree of cytolysis increased with extension of the treatment periods from 15 min to 4 hrs, although the decreases in cell survival were not proportional to the duration of the exposure. […] Comparison of the data in Tables 2 and 4 reveal that cells exposed to the tripeptide compound for one hour were irreversibly damaged when assayed a day later despite their apparent viability immediately after treatment.
# The reversibility of the cancericidal activity of the tripeptide compounds on L-1210 leukemia, MJY-alpha mammary tumor and B-16 melanoma cells was also monitored in the nonhostile tissue culture environment. Cell suspensions of these tumor models were treated with tripeptide for 15 to 240 min, washed and either inoculated into mice or maintained as suspension (L-1210) or monolayer cultures (MJY-alpha and B-16). Reductions in tumor cells survival were negligible (0-6%) in all three tumor systems at initiation of in vitro cultures following treatment with 50 ug tripeptide/ml for as long as 4 hrs. However, significant decreases in cellular viabilities of L-1210 leukemia (FIG. 9), MJY-alpha mammary tumor (FIG. 10) and B-16 melanoma (FIG. 11) tumor cells were observed 24 hr following tripeptide exposure and for the next 6 days.
# P388/L-PAM leukemia = assay: cells; assay type: cell-based, mice
# MJY-alpha monolayers = assay: Incorporation of radiolabeled precursors; assay type: cell-based
# Experimental: The metabolism of treated MJY-alpha mammary tumor cell cultures were screened by monitoring the uptake and incorporation of 3H-uridine, 3H-thymidine, and 35S-methionine. Cultures were treated as described and given radiolabeled precursors in treatment medium at 0-24 for 24 to 48 hours during the treatment periods.
# Levels of radioactivity incorporated into the cells were determined following harvesting of the cells on glass filters using a Mash II cell harvester. Each sample was examined in quadruplicate.
# In addition to determining cellular viability by trypan blue exclusion, the levels of metabolic activity of PTT.119-treated cells were compared to solvent-treated and untreated controls. Confluent MJY-alpha monolayers were again processed as previously described and […], […], ^3 H-thymidine, and ^35 S-methionine incorporation quantitated during the 24 and 48 hour treatment periods. Following 24 hour tripeptide treatment, the only parameter that was substantially depressed compared to control cultures was the incorporation of ^35 S-radioactivity into cells treated with 15 uM PTT.119 (Table 10).
smiles,measurement,setting,value
"CCOC(=O)[C@H](CCSC)NC(=O)[C@H](Cc1cccc(N(CCCl)CCCl)c1)NC(=O)[C@@H](N)Cc1ccc(F)cc1.Cl [PTT.119, 3-(p-fluorophenyl)-L-alanyl-3-[m-bis(2-chloroethyl)aminophenyl]-L-alanyl-L-methionine ethyl ester hydrochloride]",% tumor cell survival,"AMML; 1 ug/ml, 1 hr",95%
same,% tumor cell survival,"AMML; 1 ug/ml, 4 hr",85%
same,% tumor cell survival,"AMML; 1 ug/ml, 24 hr",66%
same,% tumor cell survival,"AMML; 5 ug/ml, 1 hr",50%
same,% tumor cell survival,"AMML; 5 ug/ml, 4 hr",52%
same,% tumor cell survival,"AMML; 5 ug/ml, 24 hr",6%
same,% tumor cell survival,"AMML; 10 ug/ml, 1 hr",60%
same,% tumor cell survival,"AMML; 10 ug/ml, 4 hr",41%
same,% tumor cell survival,"AMML; 10 ug/ml, 24 hr",21%
same,% tumor cell survival,"AMML; 25 ug/ml, 1 hr",20%
same,% tumor cell survival,"AMML; 25 ug/ml, 4 hr",15%
same,% tumor cell survival,"AMML; 25 ug/ml, 24 hr",14%
same,% tumor cell survival,"AMML; 50 ug/ml, 1 hr",4%
same,% tumor cell survival,"AMML; 50 ug/ml, 4 hr",3%
same,% tumor cell survival,"AMML; 50 ug/ml, 24 hr",4%
same,Percent Tumor Cell Survival,"L-1210 leukemia cells; L-1210, 1 ug/ml, pulse 1 hr",83%
same,Percent Tumor Cell Survival,"L-1210 leukemia cells; L-1210, 1 ug/ml, pulse 2 hr",78%
same,Percent Tumor Cell Survival,"L-1210 leukemia cells; L-1210, 1 ug/ml, pulse 4 hr",45%
same,Percent Tumor Cell Survival,"L-1210 leukemia cells; L-1210, 1 ug/ml, pulse .25 hr",80%
same,Percent Tumor Cell Survival,"L-1210 leukemia cells; L-1210, 1 ug/ml, pulse .5 hr",87%
same,Percent Tumor Cell Survival,"L-1210 leukemia cells; L-1210, 5 ug/ml, pulse 1 hr",61%
same,Percent Tumor Cell Survival,"L-1210 leukemia cells; L-1210, 5 ug/ml, pulse 2 hr",57%
same,Percent Tumor Cell Survival,"L-1210 leukemia cells; L-1210, 5 ug/ml, pulse 4 hr",35%
same,Percent Tumor Cell Survival,"L-1210 leukemia cells; L-1210, 5 ug/ml, pulse .25 hr",72%
same,Percent Tumor Cell Survival,"L-1210 leukemia cells; L-1210, 5 ug/ml, pulse .5 hr",60%
same,Percent Tumor Cell Survival,"L-1210 leukemia cells; L-1210, 10 ug/ml, pulse 1 hr",27%
same,Percent Tumor Cell Survival,"L-1210 leukemia cells; L-1210, 10 ug/ml, pulse 2 hr",31%
same,Percent Tumor Cell Survival,"L-1210 leukemia cells; L-1210, 10 ug/ml, pulse 4 hr",37%
same,Percent Tumor Cell Survival,"L-1210 leukemia cells; L-1210, 10 ug/ml, pulse .25 hr",53%
same,Percent Tumor Cell Survival,"L-1210 leukemia cells; L-1210, 10 ug/ml, pulse .5 hr",40%
same,Percent Tumor Cell Survival,"L-1210 leukemia cells; L-1210, 20 ug/ml, pulse 1 hr",0%
same,Percent Tumor Cell Survival,"L-1210 leukemia cells; L-1210, 20 ug/ml, pulse .25 hr",0%
same,Percent Tumor Cell Survival,"L-1210 leukemia cells; L-1210, 20 ug/ml, pulse .5 hr",0%
same,Percent Tumor Cell Survival,"L-1210 leukemia cells; L-1210, 25 ug/ml, pulse 1 hr",0%
same,Percent Tumor Cell Survival,"L-1210 leukemia cells; L-1210, 25 ug/ml, pulse 2 hr",0%
same,Percent Tumor Cell Survival,"L-1210 leukemia cells; L-1210, 25 ug/ml, pulse 4 hr",0%
same,Percent Tumor Cell Survival,"L-1210 leukemia cells; L-1210, 25 ug/ml, pulse .25 hr",20%
same,Percent Tumor Cell Survival,"L-1210 leukemia cells; L-1210, 25 ug/ml, pulse .5 hr",7%
same,reductions in tumor cell survival at initiation of in vitro cultures,"L-1210 leukemia cells; L-1210, 50 ug/ml for as long as 4 hrs (all three tumor systems)",0-6%
same,Percent Tumor Cell Survival,"L-1210 leukemia cells; L-1210, .5 ug/ml, pulse 1 hr",83%
same,Percent Tumor Cell Survival,"L-1210 leukemia cells; L-1210, .5 ug/ml, pulse 2 hr",94%
same,Percent Tumor Cell Survival,"L-1210 leukemia cells; L-1210, .5 ug/ml, pulse 4 hr",68%
same,Percent Tumor Cell Survival,"L-1210 leukemia cells; L-1210, .5 ug/ml, pulse .25 hr",95%
same,Percent Tumor Cell Survival,"L-1210 leukemia cells; L-1210, .5 ug/ml, pulse .5 hr",90%
same,L-1210 cells destroyed compared to mammary tumor and melanoma cells,"L-1210 leukemia cells; any given concentration, 30 min or 1 hr pulse, 5 days",approximately 5 times
same,T.C.D.100,P388/L-PAM leukemia,22.5
same,surviving fraction at end of examination period,P388/L-PAM leukemia,0-0.5%
same,percentage of viable cells,P388/L-PAM leukemia; 3.75 µM,0-1%
same,IC50,"P388/L-PAM leukemia; Mus musculus, P388, 24 h, read-out: T.C.D.50",5 µM
same,Relative level of incorporation of radiolabels (%),"MJY-alpha monolayers; 1.5 uM, 24 hours, 3H-thy",91.2%
same,Relative level of incorporation of radiolabels (%),"MJY-alpha monolayers; 1.5 uM, 24 hours, 3H-ur",90.9%
same,Relative level of incorporation of radiolabels (%),"MJY-alpha monolayers; 1.5 uM, 24 hours, 35S-met",103.3%
same,Relative level of incorporation of radiolabels (%),"MJY-alpha monolayers; 1.5 uM, 48 hours, 3H-thy",118.1%
same,Relative level of incorporation of radiolabels (%),"MJY-alpha monolayers; 1.5 uM, 48 hours, 3H-ur",103.4%
same,Relative level of incorporation of radiolabels (%),"MJY-alpha monolayers; 1.5 uM, 48 hours, 35S-met",96.1%
same,Relative level of incorporation of radiolabels (%),"MJY-alpha monolayers; 7.5 uM, 24 hours, 3H-thy",99.0%
same,Relative level of incorporation of radiolabels (%),"MJY-alpha monolayers; 7.5 uM, 24 hours, 3H-ur",100.6%
same,Relative level of incorporation of radiolabels (%),"MJY-alpha monolayers; 7.5 uM, 24 hours, 35S-met",97.2%
same,Relative level of incorporation of radiolabels (%),"MJY-alpha monolayers; 7.5 uM, 48 hours, 3H-thy",83.1%
same,Relative level of incorporation of radiolabels (%),"MJY-alpha monolayers; 7.5 uM, 48 hours, 3H-ur",108.6%
same,Relative level of incorporation of radiolabels (%),"MJY-alpha monolayers; 7.5 uM, 48 hours, 35S-met",89.9%
same,depression of 3H-thymidine incorporation,"MJY-alpha monolayers; 7.5 uM, second day of treatment",17%
same,Relative level of incorporation of radiolabels (%),"MJY-alpha monolayers; 15.0 uM, 24 hours, 3H-thy",103.6%
same,Relative level of incorporation of radiolabels (%),"MJY-alpha monolayers; 15.0 uM, 24 hours, 3H-ur",100.1%
same,Relative level of incorporation of radiolabels (%),"MJY-alpha monolayers; 15.0 uM, 24 hours, 35S-met",82.7%
same,Relative level of incorporation of radiolabels (%),"MJY-alpha monolayers; 15.0 uM, 48 hours, 3H-thy",82.9%
same,Relative level of incorporation of radiolabels (%),"MJY-alpha monolayers; 15.0 uM, 48 hours, 3H-ur",80.5%
same,Relative level of incorporation of radiolabels (%),"MJY-alpha monolayers; 15.0 uM, 48 hours, 35S-met",80.4%
same,"reductions in levels of cell-associated radioactivity, all three precursors","MJY-alpha monolayers; 15 uM, second day of treatment",20%

# From patent US4740501A (priority 1985, dated 1988)
